Columns and labels:
Assay type in all cases: cell-based
Normal Human Melanocytes [1] = assay: Melanocyte proliferation assay with 20% CD8+ T cell conditioned media; conditions: for suppressed melanocyte proliferation response: 1000 nM co-cultured with CD3/CD28-activated human CD8+ T cells, 20% conditioned media; for spontaneous proliferation compared to the natural melanocyte proliferation rate: added to the inflammatory culture media, time-dependent
Protocol: The assay investigates an in vitro system using CD8+ T Cells and melanocytes. The assay tests whether Compound 1 modulates the inflammatory response and how such modulation affects melanocyte biology.
(§1) Methods: CD8+ T cell Conditioned Media Step: Normal Human CD8+ T Cells from peripheral blood were purchased ([…] Technologies). They were cultured for 48 hours at 37 C and 5% CO2 under activating and unactivating conditions inside the Incucyte Live-Cell Analysis System (Essen Bioscience). Activated T cells were cultured in a flat bottom 96 well plate (Costar) that was first coated with 10 ug/ml anti-CD3 (BD Biosciences) for 2 hours at room temperature and then washed one time with PBS before cells were added. They were grown in Melanocyte Growth Medium (NHM-GM, MatTek) containing 1 ug/ml anti-CD28 (BD Biosciences). Unactivated T cells were treated the same way except that they were cultured in a separate plate without anti-CD3 and anti-CD28. Each T cell plate was treated at seeding with Compound 1 (1000, 100, or 10 nM) or media alone. Each treatment was done in triplicate. After 48 hours, all the samples (T cells and media) were transferred to new V-bottom plates and centrifuged at 1300 RPMs for 10 minutes. Supernatants were collected from the T cell pellets carefully to not disturb the pellet. The supernatants (CD8+ T cell Conditioned Media) used fresh to treat the melanocyte. The remaining amounts were stored at −80 C and then thawed for protein analysis by Luminex technology (custom Procarta 45-plex, Thermo Fisher Scientific). The treated CD8+ T cell pellets were lysed using the Quantigene sample processing kit reagents following the kit instructions. Lysates were stored at −80 C and then thawed for RNA analysis by Luminex technology using two custom Quantigene 80-Plexes—150 targeted genes total (Thermo Fisher Scientific).
(§2) Melanocyte Proliferation Step: Normal Human Melanocytes isolated from a donor's neonatal foreskin epidermis were purchased (MatTek). They were thawed and seeded following manufacturer's instruction in NHM-GM media in flat bottom 96 well plates (Costar) for 18 hours at 37 C and 5% CO2. They were approximately 10% confluent when treated with 20% CD8+ T cell Conditioned Media (25 ul Conditioned media added to 100 ul of NHM-GM already in the wells). They were cultured for 48 hours at 37 C and 5% CO2 inside the Incucyte Live-Cell Analysis System (Essen Bioscience) with 5 images per well taken every 3 hrs. After 48 hours, all the supernatants were transferred from the melanocyte plates to new V-bottom plates and centrifuged at 1300 RPMs for 10 minutes. Supernatants were collected and were stored at −80 C and then thawed for protein analysis by Luminex technology (custom Procarta 45-plex, Thermo Fisher Scientific). The treated melanocytes were lysed using the Quantigene sample processing kit reagents following the kit instructions. Lysates were stored at −80 C and then thawed for RNA analysis by Luminex technology using two custom Quantigene 80-Plexes for a total of 150 targeted genes (Thermo Fisher Scientific). Incucyte images were analyzed using the Incucyte software and the percentage of melanocyte confluence was determined for each treatment.
The assay investigates an in vitro system using CD8+ T Cells and melanocytes. The assay tests whether ruxolitinib modulates the inflammatory response and how such modulation affects melanocyte biology. […]

[2] = tested on: CD3/CD28-activated human CD8+ T cells; assay: Protein analysis (Luminex) of CD8+ T cell conditioned media; conditions: for LIF, T cells: T cell data
Protocol: as §1
as §1, with “ruxolitinib” for “Compound 1”

Normal Human Melanocytes [3] = assay: Protein analysis (Luminex) of melanocyte media after 20% CD8+ T cell conditioned media; conditions: for IL-8, protein melanocyte media: melanocytes under stress conditions
Protocol: as §2

[4] = co-cultured with CD3/CD28-activated human CD8+ T cells
[5] = melanocytes treated with activated T cell conditioned media

Row | SMILES | suppressed melanocyte proliferation response (Normal Human Melanocytes [1]) | spontaneous proliferation compared to the natural melanocyte proliferation rate (Normal Human Melanocytes [1]) | LIF, T cells [2] | IL-2, protein T cell media [2, 4] | IL-4, protein T cell media [2, 4] | IL-5, protein T cell media [2, 4] | IL-6, protein T cell media [2, 4] | additional mediators not obligated to use JAK1 signaling (growth factors and chemokine), protein T cell media [2, 4] | inflammatory cytokines that are JAK-STAT dependent, protein T cell media [2, 4] | IL-8 concentration, CD8+ T cells ([2]; treatment of CD8+ T cells) | IL-10, protein melanocyte media (Normal Human Melanocytes [3]; [5]) | IL-13, protein melanocyte media (Normal Human Melanocytes [3]; [5]) | inflammatory cytokines that are JAK-STAT dependent, protein melanocyte media (Normal Human Melanocytes [3]; [5]) | IL-8, protein melanocyte media (Normal Human Melanocytes [3]) | melanocyte proliferation (% confluence) (Normal Human Melanocytes [1]; following transfer of 20% unactivated T cell media) | increase of IL-8 (Normal Human Melanocytes [3]; melanocyte culture) [%] | reduction of HGF levels (Normal Human Melanocytes [3]; melanocyte culture supernatants after activated T cell conditioned media) [%]
1 | N#CC[C@H](C1CCCC1)n1cc(-c2ncnc3[nH]ccc23)cn1 [ruxolitinib] | completely reverse | significant reduction | on-target inhibition | upregulated | no effect | no effect | no effect | reduced | inhibits | slightly reduced | no effect | no effect | reduces | reduced |  |  | 
2 | Cc1n[nH]c(C)c1-c1cnn(C2(CC#N)CN(c3cc(F)c(C(=O)N[C@@H](C)C(F)(F)F)cc3F)C2)c1 [Compound 1, 4-[3-(cyanomethyl)-3-(3′,5′-dimethyl-1H,1′H-4,4′-bipyrazol-1-yl)azetidin-1-yl]-2,5-difluoro-N-[(1S)-2,2,2-trifluoro-1-methylethyl]benzamide] | partially reversed | significant reduction | on-target inhibition |  |  |  |  | reduced | inhibits |  |  |  | reduces | increased | does not directly alter | ~450 | ~67

From US11957661B2, “JAK1 pathway inhibitors for the treatment of vitiligo” (Incyte Corporation, priority 2020, dated 2024)
